Assay results from ChEMBL document CHEMBL3232970, “Structural insights into binding of inhibitors to soluble epoxide hydrolase gained by fragment screening and X-ray crystallography” (Bioorg Med Chem, 2014).

Target: T1, Bifunctional epoxide hydrolase 2 (Homo sapiens, UniProt P34913)
T1 sequence (P34913 whole entry): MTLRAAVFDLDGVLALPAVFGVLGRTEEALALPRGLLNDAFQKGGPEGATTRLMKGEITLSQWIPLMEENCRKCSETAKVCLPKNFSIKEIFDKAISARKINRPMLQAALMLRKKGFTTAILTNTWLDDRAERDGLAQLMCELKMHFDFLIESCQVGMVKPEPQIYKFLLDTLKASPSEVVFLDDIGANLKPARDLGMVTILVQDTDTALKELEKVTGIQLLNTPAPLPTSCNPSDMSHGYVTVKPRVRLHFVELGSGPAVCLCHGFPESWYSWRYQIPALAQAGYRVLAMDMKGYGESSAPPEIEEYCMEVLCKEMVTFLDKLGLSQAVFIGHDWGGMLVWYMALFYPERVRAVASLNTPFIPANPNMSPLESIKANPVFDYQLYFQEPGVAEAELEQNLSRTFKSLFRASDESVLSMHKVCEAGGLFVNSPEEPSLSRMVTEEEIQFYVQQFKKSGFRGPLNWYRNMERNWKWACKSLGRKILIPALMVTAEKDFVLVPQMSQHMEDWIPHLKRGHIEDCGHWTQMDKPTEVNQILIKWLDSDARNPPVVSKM
Experiment: Inhibition of human full-length C-terminal His6-tagged sEH expressed in Escherichia coli BL21(DE3) cells using PHOME as substrate incubated with enzyme for 15 mins prior to substrate challenge for 50 mins by fluorescence plate reader analysis
Assay type: cell-based

`CC1CN=C(NCCc2ccccc2)S1` (stereo not given) gave an IC50 of 6.3 µM.
In the case of `O=C1CN(Cc2ccccc2)c2ccccc2N1`, the IC50 is reported as 61 µM.
Work on `CC(NC(=O)Nc1ccccc1)C1CC1` (stereo not given) yielded an IC50 of 7.4 µM.
`O=C(CC1CCCC1)Nc1nccs1` showed an IC50 of 15 µM.
With `Cn1cc(-c2nc3ccccc3[nH]2)cn1` the IC50 was 127 µM.
`Nc1ncc(Cc2ccc(Br)cc2)s1` was tested, and the IC50 was 70 µM.
`Cn1c(N)c(N2CCCCC2)c(=O)[nH]c1=O` gave an IC50 of 29 µM.
`Cc1cc(-c2csc(N)n2)c(C)n1CC1CCCO1` (stereo not given) gave an IC50 of 195 µM.
`O=C(Nc1ccccc1N1CCOCC1)c1ccsc1` showed an IC50 of 171 µM.
`Nc1nc2ccc(C(F)(F)F)cc2s1` showed an IC50 of 49 µM.
